This assay deals with human recombinant H-PGDS (Homo sapiens, UniProt O60760). The experiment in a line: Fluorescence intensity h-PGDS TBA enzyme assay. Format: biochemical. Conditions: Examples up to 622 (and 3a, 3b).
human recombinant H-PGDS, sequence (O60760 whole entry): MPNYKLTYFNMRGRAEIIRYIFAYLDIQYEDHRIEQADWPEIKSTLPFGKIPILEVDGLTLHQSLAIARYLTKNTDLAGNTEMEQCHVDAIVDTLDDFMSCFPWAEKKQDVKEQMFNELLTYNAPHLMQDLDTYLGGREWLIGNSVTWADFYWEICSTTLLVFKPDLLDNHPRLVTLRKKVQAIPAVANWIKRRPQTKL

By IC50 is commonly meant the concentration that inhibits the measured activity by half. As to `O=C(NC1CCN(Cc2cc(F)cc(F)c2)CC1)c1ccc(-c2cccc(F)c2)nc1` [Example 248, N-[1-(3,5-Difluorobenzyl)piperidin-4-yl]-6-(3-fluorophenyl)nicotinamide], the IC50 came to 1.05 nM.
For `O=C(O)c1ccc(N2CCC(NC(=O)c3ccc(-c4cccc(F)c4)nc3)CC2)nc1` [Example 560, 6-[4-({[6-(3-Fluorophenyl)pyridin-3-yl]carbonyl}amino)piperidin-1-yl]nicotinic acid] the value was 0.641 nM; for `Cc1cc(C)n(-c2cccc(CN3CCC(NC(=O)c4ccc(-c5cccc(F)c5)nc4)CC3)c2)n1` [Example 369, N-{1-[3-(3,5-Dimethyl-1H-pyrazol-1-yl)benzyl]piperidin-4-yl}-6-(3-fluorophenyl)nicotinamide], 1.36 nM.
The value for `COC(=O)Cn1cc(CN2CCC(NC(=O)c3ccc(-c4cccc(F)c4)nc3)CC2)c2ccccc21` [Example 339, Methyl (3-{[4-({[6-(3-fluorophenyl)pyridin-3-yl]carbonyl}amino)piperidin-1-yl]methyl}-1H-indol-1-yl)acetate] was 1.17 nM.
For `O=C(NC1CCN(Cc2cccc(-c3cnccn3)c2)CC1)c1ccc(-c2cccc(F)c2)nc1` [Example 198, 6-(3-Fluorophenyl)-N-[1-(3-pyrazin-2-ylbenzyl)piperidin-4-yl]nicotinamide] the value was 1.04 nM; for `CCN(CCO)C(=O)c1ccc(N2CCC(NC(=O)c3ccc(-c4cccc(F)c4)nc3)CC2)nc1` [Example 561, N-Ethyl-6-[4-({[6-(3-fluorophenyl)pyridin-3-yl]carbonyl}amino)piperidin-1-yl]-N-(2-hydroxyethyl)nicotinamide], 1.14 nM.
Regarding `O=C(NC1CCN(Cc2ccc3c(c2)OCCCO3)CC1)c1ccc(-c2cccc(F)c2)nc1` [Example 200, N-[1-(3,4-Dihydro-2H-15-benzodioxepin-7-ylmethyl)piperidin-4-yl]-6-(3-fluorophenyl)nicotinamide], the IC50 turned out to be 1.61 nM.
On to `O=C(NC1CCN(c2ncnc3cc(F)ccc23)CC1)c1ccc(-c2cccc(F)c2)nc1` [Example 117, 6-(3-Fluorophenyl)-N-[1-(7-fluoroquinazolin-4-yl)piperidin-4-yl]nicotinamide], for which the IC50 stood at 0.429 nM.
As for `COc1cccc(-c2ccc(C(=O)NC3CCN(CC(F)(F)F)CC3)cn2)c1` [Example 14, 6-(3-Methoxyphenyl)-N-(1-(2,2,2-trifluoroethyl)piperidin-4-yl)nicotinamide], the IC50 was 4.29 nM.
For `COc1ccc(CCCN2CCC(NC(=O)c3ccc(-c4cccc(F)c4)nc3)CC2)cc1` [Example 322, 6-(3-Fluorophenyl)-N-{1-[3-(4-methoxyphenyl)propyl]piperidin-4-yl}nicotinamide] the value was 0.748 nM; for `CC(C)Oc1cccc(CN2CCC(NC(=O)c3ccc(-c4cccc(F)c4)nc3)CC2)c1` [Example 206, 6-(3-Fluorophenyl)-N-[1-(3-isopropoxybenzyl)piperidin-4-yl]nicotinamide], 1.84 nM; for `O=C(NC1CCN(c2ncccn2)CC1)c1ccc(-c2cccc(F)c2)nc1` [Example 139, 6-(3-Fluorophenyl)-N-(1-pyrimidin-2-ylpiperidin-4-yl)nicotinamide], 0.222 nM.
For `Nc1cc(N2CCC(NC(=O)c3ccc(-c4cccc(F)c4)nc3)CC2)ncn1` [Example 151, N-[1-(6-Aminopyrmidin-4-yl)piperidin-4-yl]-6-(3-fluorophenyl)nicotinamide] the value was 0.519 nM; for `COCc1cc(N2CCC(NC(=O)c3ccc(-c4cccc(F)c4)nc3)CC2)nc(-c2ccccc2)n1` [Example 144, 6-(3-Fluorophenyl)-N-{1-[6-(methoxymethyl)-2-phenylpyrimidin-4-yl]piperidin-4-yl}nicotinamide], 9.56 nM.
For `COc1cc(CN2CCC(NC(=O)c3ccc(-c4cccc(F)c4)nc3)CC2)cc(OC)c1` [Example 297, N-[1-(3,5-Dimethoxybenzyl)piperidin-4-yl]-6-(3-fluorophenyl)nicotinamide] the value was 1.25 nM; for `Cn1ncc(CN2CCC(NC(=O)c3ccc(-c4cccc(F)c4)nc3)CC2)c1-c1ccc(F)cc1` [Example 500, 6-(3-Fluorophenyl)-N-(1-{[5-(4-fluorophenyl)-1-methyl-1H-pyrazol-4-yl]methyl}piperidin-4-yl)nicotinamide], 0.633 nM.
`CN(C)CC1(CN2CCC(NC(=O)c3ccc(-c4cccc(F)c4)nc3)CC2)CCCC1` [Example 277, N-[1-({1-[(Dimethylamino)methyl]cyclopentyl}methyl)piperidin-4-yl]-6-(3-fluorophenyl)nicotinamide]: the IC50 worked out at 5.72 nM.
The value for `Cc1cn(CCN2CCC(NC(=O)c3ccc(-c4cccc(F)c4)nc3)CC2)c(=O)[nH]c1=O` [Example 180, 6-(3-Fluorophenyl)-N-{1-[2-(5-methyl-2,4-dioxo-34-dihydropyrimidin-1(2H)-yl)ethyl]piperidin-4-yl}nicotinamide] was 0.372 nM; that for `Cc1cc(N2CCC(NC(=O)c3ccc(-c4cccc(F)c4)nc3)CC2)nc(N2CCCCC2)n1` [Example 116, 6-(3-Fluorophenyl)-N-[1-(6-methyl-2-piperidin-1-ylpyrimidin-4-yl)piperidin-4-yl]nicotinamide] was 2.56 nM.
The value for `CCOc1ncccc1CN1CCC(NC(=O)c2ccc(-c3cccc(F)c3)nc2)CC1` [Example 459, N-{1-[(2-Ethoxypyridin-3-yl)methyl]piperidin-4-yl}-6-(3-fluorophenyl)nicotinamide] was 0.721 nM.
`NC(=O)c1cc2c(nc1N1CCC(NC(=O)c3ccc(-c4cccc(F)c4)nc3)CC1)CCC2` [Example 170, 2-[4-({[6-(3-Fluorophenyl)pyridin-3-yl]carbonyl}amino)piperidin-1-yl]-6,7-dihydro-5H-cyclopenta[b]pyridine-3-carboxamide]: the IC50 is 1.77 nM.
For `O=C(NC1CCN(Cc2ccc3ncccc3c2)CC1)c1ccc(-c2cccc(F)c2)nc1` [Example 290, 6-(3-Fluorophenyl)-N-[1-(quinolin-6-ylmethyl)piperidin-4-yl]nicotinamide] the value was 0.843 nM; for `COc1ccc2c(c1)CCC2N1CCC(NC(=O)c2ccc(-c3cccc(F)c3)nc2)CC1` (stereo not shown) [Example 528, 6-(3-Fluorophenyl)-N-[1-(5-methoxy-2,3-dihydro-1H-inden-1-yl)piperidin-4-yl]nicotinamide], 2.49 nM.
For `O=C(NC1CCN(Cc2ccc(C(F)(F)F)nc2)CC1)c1ccc(-c2cccc(F)c2)nc1` [Example 317, 6-(3-Fluorophenyl)-N-(1-{[6-(trifluoromethyl)pyridin-3-yl]methyl}piperidin-4-yl)nicotinamide] the value was 2.07 nM.
For `CC(C)N1CCC(NC(=O)c2ccc(-c3ccccc3)nc2)CC1` [Example 4, N-(1-Isopropylpiperidin-4-yl)-6-phenylnicotinamide] the value was 2.58 nM; for `CCOc1c(CN2CCC(NC(=O)c3ccc(-c4cccc(F)c4)nc3)CC2)cccc1OC` [Example 316, N-[1-(2-Ethoxy-3-methoxybenzyl)piperidin-4-yl]-6-(3-fluorophenyl)nicotinamide], 1.36 nM; for `Cn1c(CN2CCC(NC(=O)c3ccc(-c4cccc(F)c4)nc3)CC2)nc2cccnc21` [Example 415, 6-(3-Fluorophenyl)-N-{1-[(3-methyl-3H-imidazo[4,5-b]pyridin-2-yl)methyl]piperidin-4-yl}nicotinamide], 1.96 nM.
As for `O=C(NC1CCN(Cc2ccc(Oc3ccccc3)nc2)CC1)c1ccc(-c2cccc(F)c2)nc1` [Example 358, 6-(3-Fluorophenyl)-N-{1-[(6-phenoxypyridin-3-yl)methyl]piperidin-4-yl}nicotinamide], the IC50 was 1.72 nM.
For the compound `CN(C)CCCOc1ccccc1CN1CCC(NC(=O)c2ccc(-c3cccc(F)c3)nc2)CC1` [Example 273, N-(1-{2-[3-(Dimethylamino)propoxy]benzyl}piperidin-4-yl)-6-(3-fluorophenyl)nicotinamide], the IC50 turned out to be 1.11 nM.
For `O=C(NC1CCN(Cc2nc3cccc4c3n2CCC4)CC1)c1ccc(-c2cccc(F)c2)nc1` [Example 448, N-[1-(5,6-Dihydro-4H-imidazo[4,51-ij]quinolin-2-ylmethyl)piperidin-4-yl]-6-(3-fluorophenyl)nicotinamide], the IC50 was determined as 2.45 nM.
For the compound `O=C(NC1CCN(Cc2cc(F)cc3c2OCOC3)CC1)c1ccc(-c2cccc(F)c2)nc1` [Example 370, N-{1-[(6-Fluoro-4H-1,3-benzodioxin-8-yl)methyl]piperidin-4-yl}-6-(3-fluorophenyl)nicotinamide], the IC50 came out at 0.456 nM.
For `COc1cc(CN2CCC(NC(=O)c3ccc(-c4cccc(F)c4)nc3)CC2)ccc1OC(C)C` [Example 184, 6-(3-Fluorophenyl)-N-[1-(4-isopropoxy-3-methoxybenzyl)piperidin-4-yl]nicotinamide] the value was 3.67 nM.
For `COc1cccc(F)c1CN1CCC(NC(=O)c2ccc(-c3cccc(F)c3)nc2)CC1` [Example 211, N-[1-(2-Fluoro-6-methoxybenzyl)piperidin-4-yl]-6-(3-fluorophenyl)nicotinamide] the value was 0.453 nM.
The value for `O=C(NC1CCN(CC(F)(F)F)CC1)c1ccc(-c2ccccc2F)nc1` [Example 585, 6-(2-Fluorophenyl)-N-[1-(2,2,2-trifluoroethyl)piperidin-4-yl]nicotinamide] was 0.734 nM; that for `O=C(NC1CCN(c2ccnc(N3CCc4ccccc4C3)n2)CC1)c1ccc(-c2cccc(F)c2)nc1` [Example 58, N-{1-[2-(3,4-Dihydroisoquinolin-2(1H)-yl)pyrimidin-4-yl]piperidin-4-yl}-6-(3-fluorophenyl)nicotinamide] was 8.25 nM.
For the compound `COc1ccc(F)cc1CN1CCC(NC(=O)c2ccc(-c3cccc(F)c3)nc2)CC1` [Example 295, N-[1-(5-Fluoro-2-methoxybenzyl)piperidin-4-yl]-6-(3-fluorophenyl)nicotinamide], the IC50 came to 0.506 nM.
The value for `Cn1ccc(-c2ccc(CN3CCC(NC(=O)c4ccc(-c5cccc(F)c5)nc4)CC3)cc2)n1` [Example 473, 6-(3-Fluorophenyl)-N-{1-[4-(1-methyl-1H-pyrazol-3-yl)benzyl]piperidin-4-yl}nicotinamide] was 2.36 nM.

Values taken from patent US7902373B2 (Pfizer Inc, priority 2006, dated 2011).
